Results: US20200368247A1, “CENICRIVIROC FOR THE TREATMENT OF FIBROSIS” (Tobira Therapeutics, Inc., priority 2014, published 2020)

Columns and labels:
[1] = Study 202 biomarkers of inflammation; format: in vivo, human
Description: As an exploratory analysis, levels of inflammation biomarkers MCP-1, sCD14, high sensitivity C-reactive protein [hs-CRP], interleukin-6 [IL-6], D-dimer, and fibrinogen) were measured. Baseline values and changes from baseline at Week 24 and Week 48 of MCP-1, sCD14, hs-CRP, IL-6, D-dimer, and fibrinogen are summarized in Table 25.
The sCD14 samples were originally analyzed in 2 separate batches: Batch 1 included samples leading up to the Week 24 primary analysis and Batch 2 included Week 32 and Week 48 (end of study) samples. A repeat analysis of archived samples all analyzed in one batch was conducted for consistency in analysis across time points. To control for the effects of covariates, a linear mixed-model repeated-measures analysis was conducted on the changes from baseline in sCD14 (analysis dated September 2013).

[2] = Excerpt: (§1) Subjects with a history of HIV-2, hepatitis B and/or C, cirrhosis of the liver or any known active or chronic active liver disease were excluded from the study.
Most AEs were mild or moderate (Grade 1 or Grade 2). […] None of the Grade ≥3 AEs (preferred terms) were reported in more than 1 subject. Table 28 provides an overview of deaths, SAES, AEs, AEs by severity, AEs related to study medication, and AE leading to discontinuation.

HIV-1 = assay: Study 202 Phase 2b, virologic response (HIV-1 RNA <50 copies/mL, FDA Snapshot), with FTC/TDF; conditions: for subjects with virologic success (HIV-1 RNA <50 copies/mL): EFV
Excerpt: as §1
The primary efficacy endpoint was virologic response at Week 24, defined as HIV-1 RNA <50 copies/mL using the FDA Snapshot Algorithm.

Structure (SMILES): O=C1Nc2ccc(Cl)cc2[C@@](C#CC2CC2)(C(F)(F)F)O1 [EFV, efavirenz, reference compound]
- sCD14 Baseline value, Mean ([1]; EFV 600 mg): 2e+06 pg/mL
- sCD14 change from baseline at Week 12, Mean ([1]; EFV 600 mg): 90000 pg/mL
- sCD14 change from baseline at Week 12, Median ([1]; EFV 600 mg): 180000 pg/mL
- sCD14 change from baseline at Week 24, Mean ([1]; EFV 600 mg): 230000 pg/mL
- sCD14 change from baseline at Week 24, Median ([1]; EFV 600 mg): 130000 pg/mL
- sCD14 change from baseline at Week 32, Mean ([1]; EFV 600 mg): 480000 pg/mL
- sCD14 change from baseline at Week 32, Median ([1]; EFV 600 mg): 170000 pg/mL
- sCD14 change from baseline at Week 48, Mean ([1]; EFV 600 mg): 640000 pg/mL
- sCD14 change from baseline at Week 48, Median ([1]; EFV 600 mg): 460000 pg/mL
- plasma MCP-1 over time ([1]; Study 202, up to Week 48): remained at baseline values
- Deaths ([2]; All CVC (N = 115), EFV (N = 28)): 0 n
- SAE: Suicidal ideation ([2]; All CVC (N = 115), EFV (N = 28), through Week 48): 1 n
- Grade 3 or 4 AE: Suicidal ideation ([2]; All CVC (N = 115), EFV (N = 28; Grade 4 event)): 1 n
- AE leading to discontinuation: Abnormal dreams ([2]; human, in vivo, 48 week): 1 n
- AE leading to discontinuation: Aggression ([2]; human, in vivo, 48 week): 0 n
- AE leading to discontinuation: Anxiety ([2]; human, in vivo, 48 week): 1 n
- AE leading to discontinuation: Depression ([2]; human, in vivo, 48 week): 1 n
- AE leading to discontinuation: Dermatitis allergic ([2]; human, in vivo, 48 week): 1 n
- AE leading to discontinuation: Ear and labyrinth disorders ([2]; human, in vivo, 48 week): 1 n
- AE leading to discontinuation: Insomnia ([2]; human, in vivo, 48 week): 3 n
- AE leading to discontinuation: Psychiatric disorders ([2]; human, in vivo, 48 week): 3 n
- AE leading to discontinuation: Rash ([2]; human, in vivo, 48 week): 1 n
- AE leading to discontinuation: Skin and subcutaneous tissue disorders ([2]; human, in vivo, 48 week): 2 n
- AE leading to discontinuation: Tachyphrenia ([2]; human, in vivo, 48 week): 1 n
- AE leading to discontinuation: Thinking abnormal ([2]; human, in vivo, 48 week): 0 n
- AE leading to discontinuation: Tinnitus ([2]; human, in vivo, 48 week): 1 n
- Depression, % ([2]; human, in vivo, 48 week): (11%)
- Diarrhoea, % ([2]; human, in vivo, 48 week): (11%)
- Fatigue, % ([2]; human, in vivo, 48 week): (4%)
- Nausea, % ([2]; human, in vivo, 48 week): (21%)
- Rash, % ([2]; human, in vivo, 48 week): (18%)
- Subjects with AEs leading to discontinuation of study medication ([2]; human, in vivo, 48 week): 6 n
- Subjects with AEs related to study medication ([2]; human, in vivo, 48 week): 20 n
- Subjects with AEs, by worst grade severity: Grade 1 ([2]; human, in vivo, 48 week): 10 n
- Subjects with AEs, by worst grade severity: Grade 2 ([2]; human, in vivo, 48 week): 13 n
- Subjects with AEs, by worst grade severity: Grade 3 ([2]; human, in vivo, 48 week): 3 n
- Subjects with AEs, by worst grade severity: Grade 4 ([2]; human, in vivo, 48 week): 0 n
- Syphilis, % ([2]; human, in vivo, 48 week): (11%)
- Upper respiratory tract infection, % ([2]; human, in vivo, 48 week): (7%)
- AE leading to discontinuation: Disturbance in attention ([2]; human, in vivo, 48 weeks): 1 n
- AE leading to discontinuation: Dizziness ([2]; human, in vivo, 48 weeks): 2 n
- AE leading to discontinuation: Eye disorders ([2]; human, in vivo, 48 weeks): 1 n
- AE leading to discontinuation: Gastrointestinal disorders ([2]; human, in vivo, 48 weeks): 1 n
- AE leading to discontinuation: General disorders and administration site conditions ([2]; human, in vivo, 48 weeks): 0 n
- AE leading to discontinuation: Hypoaesthesia ([2]; human, in vivo, 48 weeks): 1 n
- AE leading to discontinuation: Malaise ([2]; human, in vivo, 48 weeks): 0 n
- AE leading to discontinuation: Musculoskeletal and connective tissue disorders ([2]; human, in vivo, 48 weeks): 1 n
- AE leading to discontinuation: Musculoskeletal discomfort ([2]; human, in vivo, 48 weeks): 1 n
- AE leading to discontinuation: Nausea ([2]; human, in vivo, 48 weeks): 1 n
- AE leading to discontinuation: Nervous system disorders ([2]; human, in vivo, 48 weeks): 4 n
- AE leading to discontinuation: Photophobia ([2]; human, in vivo, 48 weeks): 1 n
- AEs leading to discontinuation of study medication, % ([2]; human, in vivo, 48 weeks): 21%
- AEs leading to discontinuation of study medication, subjects ([2]; human, in vivo, 48 weeks): 6 subjects
- Abnormal dreams, % ([2]; human, in vivo, 48 weeks): (21%)
- Any AE leading to discontinuation of study drug ([2]; human, in vivo, 48 weeks): 6 n
- Any Grade 3 AE ([2]; human, in vivo, 48 weeks): 3 n
- Any Grade 4 AE ([2]; human, in vivo, 48 weeks): 1 n
- Any SAE ([2]; human, in vivo, 48 weeks): 1 n
- Dizziness, % ([2]; human, in vivo, 48 weeks): (29%)
- Grade 3 or 4 AE: Abdominal pain ([2]; human, in vivo, 48 weeks): 0 n
- Grade 3 or 4 AE: Blindness unilateral ([2]; human, in vivo, 48 weeks): 0 n
- Grade 3 or 4 AE: Blood creatine phosphokinase increased ([2]; human, in vivo, 48 weeks): 0 n
- Grade 3 or 4 AE: Cardiac disorders ([2]; human, in vivo, 48 weeks): 0 n
- Grade 3 or 4 AE: Corneal infection ([2]; human, in vivo, 48 weeks): 0 n
- Grade 3 or 4 AE: Depression ([2]; human, in vivo, 48 weeks): 1 n
- Grade 3 or 4 AE: Dermatitis allergic ([2]; human, in vivo, 48 weeks): 1 n
- Grade 3 or 4 AE: Ear and labyrinth disorders ([2]; human, in vivo, 48 weeks): 1 n
- Grade 3 or 4 AE: Eye disorders ([2]; human, in vivo, 48 weeks): 0 n
- Grade 3 or 4 AE: Gastrointestinal disorders ([2]; human, in vivo, 48 weeks): 0 n
- Grade 3 or 4 AE: General disorders and administration site conditions ([2]; human, in vivo, 48 weeks): 0 n
- Grade 3 or 4 AE: Infections and infestations ([2]; human, in vivo, 48 weeks): 0 n
- Grade 3 or 4 AE: Investigations ([2]; human, in vivo, 48 weeks): 1 n
- Grade 3 or 4 AE: Palpitations ([2]; human, in vivo, 48 weeks): 0 n
- Grade 3 or 4 AE: Psychiatric disorders ([2]; human, in vivo, 48 weeks): 1 n
- Grade 3 or 4 AE: Pyrexia ([2]; human, in vivo, 48 weeks): 0 n
- Grade 3 or 4 AE: Skin and subcutaneous tissue disorders ([2]; human, in vivo, 48 weeks): 1 n
- Grade 3 or 4 AE: Stress ([2]; human, in vivo, 48 weeks): 0 n
- Grade 3 or 4 AE: Tinnitus ([2]; human, in vivo, 48 weeks): 1 n
- Grade 3 or 4 AE: Weight decreased ([2]; human, in vivo, 48 weeks): 1 n
- Insomnia, % ([2]; human, in vivo, 48 weeks): (14%)
- Lymphadenopathy, % ([2]; human, in vivo, 48 weeks): (14%)
- Nasopharyngitis, % ([2]; human, in vivo, 48 weeks): (4%)
- SAE: Blindness unilateral ([2]; human, in vivo, 48 weeks): 0 n
- SAE: Corneal infection ([2]; human, in vivo, 48 weeks): 0 n
- SAE: Depression ([2]; human, in vivo, 48 weeks): 1 n
- SAE: Eye disorders ([2]; human, in vivo, 48 weeks): 0 n
- SAE: Gastroenteritis ([2]; human, in vivo, 48 weeks): 0 n
- SAE: Infections and infestations ([2]; human, in vivo, 48 weeks): 0 n
- SAE: Psychiatric disorders ([2]; human, in vivo, 48 weeks): 1 n
- Subjects with serious AEs ([2]; human, in vivo, 48 weeks): 1 n
- Subjects with ≥1 AE ([2]; human, in vivo, 48 weeks): 27 n
- subjects who prematurely discontinued the study (HIV-1; EFV arm): 39%
- subjects with virologic success (HIV-1 RNA <50 copies/mL) (HIV-1; Week 24): 71%
- subjects with virologic success (HIV-1 RNA <50 copies/mL) (HIV-1; Week 48): 50%
